Data reported in PubChem BioAssay AID463229 (Broad Institute, 2010).

These compounds were tested on INS-1E rat beta cells, no cytokines, CellTiter-Glo ATP, 48 h (assay: cytokine-free beta-cell viability effect – INS-1E rat cells, ATP luminescence, cherry pick, counter-screen for beta-cell apoptosis protection project, dose response (AID 463229)).
With `Cc1nc(C)c(-c2csc(NCCc3ccccc3)n2)s1` the AC50 was 24.1 µM. Work on `Cc1ccc(NC(=O)COc2ccc(N(C)C(=O)C(C)(C)C)cc2)cc1S(=O)(=O)N1CCCCC1` yielded an AC50 of 5.78 µM. Work on `O=[N+]([O-])c1c(Nc2ccc(O)cc2)cc(Cl)c2nonc12` yielded an AC50 of 8.76 µM. Compound `COc1ccc(-[n+]2c(C)cc(/C=C3\Sc4ccccc4N3C)cc2C)cc1` has an AC50 of less than 0.195 µM. With `Cc1ccc(C2=CC(c3ccc(N(C)C)cc3)n3nnnc3N2)cc1` (configuration not stated) the AC50 was 6.72 µM. `CCCCCCCCCCCCn1ccc(=N)cc1` gave an AC50 of 0.515 µM. `C#CCOCCOCCOCCNc1nc(N2CCN(C(=O)CCCCCCCCCCNC(=O)Cn3cc(C[C@@H](C)O)nn3)CC2)nc(N2CCN(C(=O)CCCCCCCCCCNC(=O)[C@@H]([C@H](C)CC)n3cc(CCCCCN)nn3)CC2)n1` was tested, and the AC50 was 7.83 µM. For `COc1ccccc1CNCC(O)Cn1c2ccccc2c2ccccc21` (configuration not stated), the AC50 was 12.9 µM. `CNC[C@@H](CC1CCCCC1)NC[C@H](CC(C)C)NCCc1cccc(C(F)(F)F)c1` was tested, and the AC50 was 4.4 µM. Work on `Cc1cc(C)n(Cc2ccc(NC(=O)c3ccc(COc4ccccc4Br)cc3)cc2)n1` yielded an AC50 of 8.33 µM. For `C=C1C(O)[C@@H]2O[C@]3(CC[C@H](/C=C/C(C)[C@@H]4CC(C)=CC5(O[C@H](C[C@@](C)(O)C(=O)O)CCC5O)O4)O3)CC[C@H]2O[C@@H]1C(O)CC(C)[C@H]1OC2(CCCCO2)CCC1C` (some centres not stated), the AC50 was less than 0.195 µM. Compound `O=C(Nc1ccc(OCC(F)(F)C(F)F)c(C(F)(F)F)c1)c1ccccc1O` has an AC50 of 6.48 µM. `O=C1C=C(N2CCOCC2)c2ccccc2C1=O` showed an AC50 of 6.13 µM. Work on `c1ccc(CCNc2nc(-c3ccccn3)nc3ccccc23)cc1` yielded an AC50 of 4.92 µM. Work on `Cc1ccc(NC(=O)CCC(=O)N/N=C/c2ccc([N+](=O)[O-])o2)cc1C` yielded an AC50 of 19.8 µM. Compound `c1ccc(/N=C2\N=C(Nc3ccccn3)c3ccccc32)nc1` has an AC50 of 5.52 µM. Work on `C/C(=N\NC(=O)c1ccc(C)cc1)c1c(C)[nH]n(-c2ccccc2)c1=O` yielded an AC50 of 15.3 µM. For `O=C(N/N=C/c1sc2ccccc2c1O)c1cccc2ccccc12`, the AC50 was 4.8 µM. With `CCOC(=O)CS(=O)(=O)c1nc(-c2ccccc2)cc(C(F)(F)F)n1` the AC50 was 8.1 µM. Work on `O=C(CNc1cccc2ccccc12)N/N=C/c1ccc([N+](=O)[O-])o1` yielded an AC50 of 11.5 µM. Work on `CCCNC1=C(N(C(C)=O)c2cccc(F)c2)C(=O)c2ccccc2C1=O` yielded an AC50 of 3.06 µM. Compound `CCN(CC)S(=O)(=O)c1ccc(NC(=O)Nc2cccc(C(F)(F)F)c2)cc1` has an AC50 of 8.02 µM. For `O=C(C1CCC1)N1CCc2cc(S(=O)(=O)Nc3ccc4c(c3)OCCO4)ccc21`, the AC50 was 7.92 µM. `CCCCCCCCn1ccc(=N)cc1` showed an AC50 of 0.65 µM. Compound `C/C(=N\NC(=O)c1ccc(F)cc1)c1ccccn1` has an AC50 of 2.35 µM. Work on `CCOC(=O)c1c(NC(=O)C[n+]2ccc(Cc3ccccc3)cc2)sc(C)c1C` yielded an AC50 of 10.9 µM. `Cc1cc(C)c2c(ccc3cccc[n+]32)c1` gave an AC50 of 6.45 µM. With `CCc1ccc(S(=O)(=O)/N=C2/C=C(Sc3ncn[nH]3)C(=O)c3ccccc32)cc1` the AC50 was 9.6 µM. For `CCCCC(=O)NC(c1ccco1)c1cc(Cl)c2cccnc2c1O` (configuration not stated), the AC50 was 12.4 µM. For `C=C[C@H](CC(C)C)N(Cc1ccccc1)S(=O)(=O)N(Cc1ccc(OC)cc1)[C@H](C=C)CC(C)C`, the AC50 was 5.73 µM. In the case of `O=C(NNC(=S)Nc1ccc(Cl)c(Cl)c1)c1ccccn1`, the AC50 is reported as 4.35 µM. `COc1ccc(Cc2nnc(N/N=C/c3ccc(O)cc3)[nH]c2=O)cc1OC` gave an AC50 of 4.32 µM. `CN(C)S(=O)(=O)c1cccc(N=C2NN=C(c3ccccc3)CS2)c1` was tested, and the AC50 was 4.4 µM. For `CC(=O)NC(c1cc(Cl)c2cccnc2c1O)C(C)C` (configuration not stated), the AC50 was 8.18 µM. `CCN1CCN(Cc2ccc(NC(=O)c3cc(NC(=O)c4cncc(-c5ccc(C#N)cc5)c4)cc(OC)c3)cc2C(F)(F)F)CC1` showed an AC50 of 10.8 µM. With `Cc1nnc(N/N=C/c2ccccn2)[nH]c1=O` the AC50 was 5.46 µM. For `CCOc1cccc(/C=N/NC(=O)c2cc(C3CC3)[nH]n2)c1O`, the AC50 was 7.83 µM. Compound `Cc1ccc(S(=O)(=O)Nc2ccccc2C(=O)Nc2nc(-c3ccc(F)cc3)cs2)cc1` has an AC50 of 2.92 µM. Compound `N#Cc1c2ccc([N+](=O)[O-])cc2[n+]([O-])n1-c1ccccc1` has an AC50 of 5.32 µM. In the case of `O=C1c2ccc3c4c(ccc(c24)C(=O)N1c1cccc(O)c1)C(=O)N(c1cccc(O)c1)C3=O`, the AC50 is reported as 3.36 µM. `Cc1ccc(N=Cc2c(C)[nH]n(-c3nc4ccccc4[nH]3)c2=O)cc1` was tested, and the AC50 was 1.85 µM. Work on `Cc1ccc(NC(=O)c2nc(S(=O)(=O)Cc3ccccc3)ncc2Cl)cc1` yielded an AC50 of 15.3 µM. In the case of `Cc1cccc(Cn2nnc3c2C(=O)c2ccccc2C3=O)c1`, the AC50 is reported as 10.5 µM. Compound `CCCC12C(=O)C(C)(C(c3ccccc3)=C1c1ccccc1)C1C(=O)N(c3ccc(C)cc3)C(=O)C12` (configuration not stated) has an AC50 of 4.4 µM. In the case of `COc1cccc(/C=N/NC(=O)c2ccc(-c3ccccc3)cc2)c1O`, the AC50 is reported as 13.1 µM. With `O=C(Nc1ccc(Cl)cc1)Nc1ccc(N2CCCC2)c(S(=O)(=O)Nc2ccccc2Cl)c1` the AC50 was 7.12 µM. `COc1ccc(C2/C=C\CN(C(=O)c3ccc(C)cc3)[C@H](Cc3ccccc3)C(=O)N2Cc2ccc(F)cc2)cc1` (some centres not stated) gave an AC50 of 7.33 µM. `COc1cccc(/C=N/Nc2nc3ccccc3[nH]2)c1O` was tested, and the AC50 was 8.89 µM. Compound `Cc1cc(N2CCN(C)CC2)ccc1NC(=O)c1c2c(nc3ccccc13)CCN(Cc1ccccc1)C2` has an AC50 of 8 µM. For `COc1ccc(C(=O)N(C)c2ccccc2C(=O)NCCc2ccccc2)cc1`, the AC50 was 7.85 µM. In the case of `CC1CCC(C(C)C)C(OC(=O)C[n+]2cc(-c3ccc(Cl)cc3)n3c2CCCCC3)C1` (configuration not stated), the AC50 is reported as 7.32 µM. Work on `COc1ccc(CCNc2cc(N3CCN(C(=O)c4ccccc4OC)CC3)ccc2[N+](=O)[O-])cc1OC` yielded an AC50 of 8.74 µM.
